Results reported in PMC6332448, “SAR Studies Leading to the Identification of a Novel Series of Metallo-β-lactamase Inhibitors for the Treatment of Carbapenem-Resistant Enterobacteriaceae Infections That Display Efficacy in an Animal Infection Model” (ACS Infectious Diseases, 2018).
≈ marks a conversion by molar mass, not a printed value. Where “and” joins values, the source holds several entries; their conditions need not be identical. Equal values may be shown once.

Molecular target: NDM-1 (Klebsiella pneumoniae, UniProt C7C422)
Sequence (C7C422 29-270, looked up, species assumed): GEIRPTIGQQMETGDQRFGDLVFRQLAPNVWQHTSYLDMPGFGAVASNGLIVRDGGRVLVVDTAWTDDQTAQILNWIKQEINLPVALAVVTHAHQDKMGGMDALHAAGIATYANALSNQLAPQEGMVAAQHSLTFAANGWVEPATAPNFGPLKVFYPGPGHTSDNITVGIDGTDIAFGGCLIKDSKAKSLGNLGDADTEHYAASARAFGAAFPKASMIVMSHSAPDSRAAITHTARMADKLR
Experiment: biochemical
Format: biochemical
Conditions: NDM-1 IC50, 300 μM imipenem, 10 mM HEPES pH 7.5, 25 °C; average of at least two independent assays

Structure (SMILES) | IC50
N#Cc1cccc(CS(=O)(=O)Nc2scnc2C(=O)O)c1 [Compound 66] | 8.82 µM
O=C(O)c1ncccc1NS(=O)(=O)c1ccccc1 [Compound 32] | 49.9 µM
O=C(O)c1ncccc1NS(=O)(=O)Cc1ccccc1 [Compound 63] | > 100 µM
O=C(O)c1ncsc1NS(=O)(=O)Cc1ccccc1 [Compound 64] | 2.53 µM
O=C(O)c1ccccn1 [Compound 1, pyridine-2-carboxylic acid, reference compound] | 17.1 µM
O=C(Nc1cccnc1C(=O)O)c1cocn1 [Compound 18] | > 200 µM
Cc1ccc(C(=O)Nc2cccnc2C(=O)O)cc1Cl [Compound 17] | 8.46 µM and 8.5 µM
O=C(O)c1ncccc1NS(=O)(=O)Cc1cc(Cl)cc(Cl)c1 [Compound 43] | 18.6 µM
O=C(O)c1ncsc1NS(=O)(=O)c1cccnc1 [Compound 76, 5-(Pyridine-3-sulfonamido)-1,3-thiazole-4-carboxylic acid] | 2.67 µM

Same assay, conditions: read-out: NDM-1 IC50; 300 μM imipenem, 10 mM HEPES pH 7.5, 25 °C; average of at least two independent assays

Structure (SMILES) | IC50 [µM]
O=C(O)c1ncccc1NS(=O)(=O)c1ccccc1 [Compound 61] | 49.9

Same assay, conditions: tested up to 200 μM

Structure (SMILES) | inhibition of NDM-1, in words
O=C(Nc1cccnc1C(=O)O)c1cocn1 [Compound 18] | inactive
Cc1ccc(C(=O)Nc2cccnc2C(=O)O)cc1Cl [Compound 17] | low micromolar inhibition

Molecular target: VIM-1 (Pseudomonas aeruginosa, UniProt A0A0F7KYQ8)
Experiment: biochemical
Format: biochemical
Conditions: not given

Structure (SMILES) | IC50 [µM]
N#Cc1cccc(CS(=O)(=O)Nc2scnc2C(=O)O)c1 [Compound 66] | 54.2
O=C(O)c1ncccc1NS(=O)(=O)c1ccccc1 [Compound 32] | > 200
O=C(O)c1ncccc1NS(=O)(=O)Cc1ccccc1 [Compound 63] | > 100
O=C(O)c1ncsc1NS(=O)(=O)Cc1ccccc1 [Compound 64] | 62.7
O=C(O)c1ccccn1 [Compound 1, pyridine-2-carboxylic acid, reference compound] | > 200
O=C(Nc1cccnc1C(=O)O)c1cocn1 [Compound 18] | > 200
Cc1ccc(C(=O)Nc2cccnc2C(=O)O)cc1Cl [Compound 17] | 95.7
O=C(O)c1ncccc1NS(=O)(=O)Cc1cc(Cl)cc(Cl)c1 [Compound 43] | 57.2

Same assay, conditions: read-out: VIM-1 IC50; 300 μM imipenem, 10 mM HEPES pH 7.5, 25 °C; average of at least two independent assays

Structure (SMILES) | IC50 [µM]
O=C(O)c1ncccc1NS(=O)(=O)c1ccccc1 [Compound 61] | > 200

Same assay, conditions: tested up to 200 μM

Structure (SMILES) | inhibition of VIM-1, in words
O=C(O)c1ccccn1 [Compound 1, pyridine-2-carboxylic acid, reference compound] | no significant activity
O=C(Nc1cccnc1C(=O)O)c1cocn1 [Compound 18] | inactive
Cc1ccc(C(=O)Nc2cccnc2C(=O)O)cc1Cl [Compound 17] | detectable inhibition

Molecular target: IMP-1 (Serratia marcescens, UniProt P52699)
Sequence (P52699 19-246, looked up, species assumed): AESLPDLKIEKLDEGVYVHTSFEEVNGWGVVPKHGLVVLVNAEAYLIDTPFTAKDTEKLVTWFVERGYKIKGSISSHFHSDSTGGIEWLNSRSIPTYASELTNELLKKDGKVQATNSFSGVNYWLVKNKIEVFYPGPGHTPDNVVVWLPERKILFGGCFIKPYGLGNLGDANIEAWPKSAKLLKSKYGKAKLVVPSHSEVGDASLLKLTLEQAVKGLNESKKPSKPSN
Experiment: biochemical
Format: biochemical
Conditions: not given

Structure (SMILES) | IC50 [µM]
N#Cc1cccc(CS(=O)(=O)Nc2scnc2C(=O)O)c1 [Compound 66] | 2.51
O=C(O)c1ncccc1NS(=O)(=O)c1ccccc1 [Compound 32] | > 200
O=C(O)c1ncccc1NS(=O)(=O)Cc1ccccc1 [Compound 63] | > 100
O=C(O)c1ncsc1NS(=O)(=O)Cc1ccccc1 [Compound 64] | 1.83
O=C(O)c1ccccn1 [Compound 1, pyridine-2-carboxylic acid, reference compound] | > 200
O=C(Nc1cccnc1C(=O)O)c1cocn1 [Compound 18] | > 200
Cc1ccc(C(=O)Nc2cccnc2C(=O)O)cc1Cl [Compound 17] | 87.6
O=C(O)c1ncccc1NS(=O)(=O)Cc1cc(Cl)cc(Cl)c1 [Compound 43] | 180
O=C(O)c1ncsc1NS(=O)(=O)c1cccnc1 [Compound 76, 5-(Pyridine-3-sulfonamido)-1,3-thiazole-4-carboxylic acid] | 54

Same assay, conditions: read-out: IMP-1 IC50; 300 μM imipenem, 10 mM HEPES pH 7.5, 25 °C; average of at least two independent assays

Structure (SMILES) | IC50 [µM]
O=C(O)c1ncccc1NS(=O)(=O)c1ccccc1 [Compound 61] | > 200

Same assay, conditions: tested up to 200 μM

Structure (SMILES) | inhibition of IMP-1, in words
O=C(O)c1ccccn1 [Compound 1, pyridine-2-carboxylic acid, reference compound] | no significant activity
O=C(Nc1cccnc1C(=O)O)c1cocn1 [Compound 18] | inactive
Cc1ccc(C(=O)Nc2cccnc2C(=O)O)cc1Cl [Compound 17] | detectable inhibition

System: NDM-1-producing strain Escherichia coli NTBC121
Experiment: Whole-cell meropenem potentiation, CLSI broth microdilution MIC
Format: cell-based
Conditions: inhibitor present at 100 μM; E. coli NTBC121 (NDM-1); meropenem alone 32 μg/mL
Description: (§1) Minimal inhibitory concentrations (MIC) were determined using the Clinical Laboratory Standards Institute (CLSI) broth microdilution procedure. MBL-positive Enterobacteriaceae clinical isolates tested in the susceptibility study included NDM-1-producing strain E. coli NTBC121, VIM-1-producing strain K. pneumoniae NTBC055, and IMP-1-producing strain K. pneumoniae NTBC062. (Individual MICs for all strains tested are presented in Table 2 and Table 1 in the Supporting Information).

Structure (SMILES) | MICMEM (meropenem MIC in presence of inhibitor) vs NTBC121 [µg/mL]
N#Cc1cccc(CS(=O)(=O)Nc2scnc2C(=O)O)c1 [Compound 66] | 2
O=C(O)c1ncccc1NS(=O)(=O)c1ccccc1 [Compound 32] | 16
O=C(O)c1ncccc1NS(=O)(=O)Cc1ccccc1 [Compound 63] | 16
O=C(O)c1ncsc1NS(=O)(=O)Cc1ccccc1 [Compound 64] | 0.5
O=C(O)c1ncccc1NS(=O)(=O)Cc1cc(Cl)cc(Cl)c1 [Compound 43] | 8
O=C(O)c1ncsc1NS(=O)(=O)c1cccnc1 [Compound 76, 5-(Pyridine-3-sulfonamido)-1,3-thiazole-4-carboxylic acid] | 0.06
O=C(O)c1ncccc1NS(=O)(=O)c1ccccc1 [Compound 61] | 16

Same assay, conditions: potentiated meropenem MIC vs E. coli NTBC121 divided by NDM-1 IC50

Structure (SMILES) | potentiation efficiency (PE = MIC/IC50)
O=C(O)c1ncccc1NS(=O)(=O)c1ccccc1 [Compound 61] | 0.32

System: VIM-1-producing strain Klebsiella pneumoniae NTBC055
Experiment: as above
Format: cell-based
Conditions: inhibitor present at 100 μM; K. pneumoniae NTBC055 (VIM-1); meropenem alone 16 μg/mL
Description: as §1

Structure (SMILES) | MICMEM (meropenem MIC in presence of inhibitor) vs NTBC055 [µg/mL]
N#Cc1cccc(CS(=O)(=O)Nc2scnc2C(=O)O)c1 [Compound 66] | 0.5
O=C(O)c1ncccc1NS(=O)(=O)c1ccccc1 [Compound 32] | 4
O=C(O)c1ncccc1NS(=O)(=O)Cc1ccccc1 [Compound 63] | 1
O=C(O)c1ncsc1NS(=O)(=O)Cc1ccccc1 [Compound 64] | 0.5
O=C(O)c1ncccc1NS(=O)(=O)Cc1cc(Cl)cc(Cl)c1 [Compound 43] | 1
O=C(O)c1ncccc1NS(=O)(=O)c1ccccc1 [Compound 61] | 4

System: IMP-1-producing strain K. pneumoniae NTBC062
Experiment: as above
Format: cell-based, Klebsiella pneumoniae
Conditions: inhibitor present at 100 μM; K. pneumoniae NTBC062 (IMP-1); meropenem alone 4 μg/mL
Description: as §1

Structure (SMILES) | MICMEM (meropenem MIC in presence of inhibitor) vs NTBC062 [µg/mL]
N#Cc1cccc(CS(=O)(=O)Nc2scnc2C(=O)O)c1 [Compound 66] | 1
O=C(O)c1ncccc1NS(=O)(=O)c1ccccc1 [Compound 32] | 2
O=C(O)c1ncccc1NS(=O)(=O)Cc1ccccc1 [Compound 63] | 1
O=C(O)c1ncsc1NS(=O)(=O)Cc1ccccc1 [Compound 64] | 0.5
O=C(O)c1ncccc1NS(=O)(=O)Cc1cc(Cl)cc(Cl)c1 [Compound 43] | 1
O=C(O)c1ncccc1NS(=O)(=O)c1ccccc1 [Compound 61] | 4

System: not listed separately
Experiment: Kinetic solubility in PBS pH 7.4
Format: physicochemical
Conditions: phosphate-buffered saline, pH 7.4, aqueous buffer, thermodynamic from solid, acid form, read-out: solubility
Description: This was determined by vigorous stirring (1200 rpm) of a 20 mg/mL mixture of the test compound in phosphate-buffered saline (PBS) at pH 7.4 for 4 h. The mixture was then centrifuged for 20 min at 10 000 rpm and the supernatant further processed by filtration. The concentration of the test compound in the filtrate was then determined by high-performance liquid chromatography (UV analysis) by comparison to a standard calibration curve of the test compound.

Structure (SMILES) | solubility at 4 h [mg/mL]
O=C(O)c1ncsc1NS(=O)(=O)c1cccnc1 [Compound 76, 5-(Pyridine-3-sulfonamido)-1,3-thiazole-4-carboxylic acid] | 2.4 (≈ 8.41 mM)

Same assay, conditions: phosphate-buffered saline, pH 7.4, aqueous buffer, thermodynamic from solid, sodium salt, read-out: solubility (Na salt)

Structure (SMILES) | solubility at 4 h [mg/mL]
O=C(O)c1ncsc1NS(=O)(=O)c1cccnc1 [Compound 76, 5-(Pyridine-3-sulfonamido)-1,3-thiazole-4-carboxylic acid] | ~20

Same assay, conditions: sodium salt

Structure (SMILES) | solubility (Na salt) [mg/mL]
O=C(O)c1ncsc1NS(=O)(=O)c1cccnc1 [Compound 76, 5-(Pyridine-3-sulfonamido)-1,3-thiazole-4-carboxylic acid] | 16.9

System: NDM-1-producing Escherichia coli (DH5α/pLBII-NDM-1)
Experiment: Imipenem MIC on laboratory strain
Format: cell-based
Conditions: tested at concentrations up to 1 mM; data not shown

Structure (SMILES) | reduction of imipenem MIC
O=C(O)c1ccccn1 [Compound 1, pyridine-2-carboxylic acid, reference compound] | no reduction

Molecular target: T1, VIM-2 (Escherichia coli, UniProt Q5U7L7)
Experiment: not given
Conditions: tested up to 200 μM

Structure (SMILES) | inhibition of VIM-2, in words
O=C(O)c1ncccc1NS(=O)(=O)c1ccccc1 [Compound 32] | strong inhibition
O=C(Nc1cccnc1C(=O)O)c1cocn1 [Compound 18] | inactive
Cc1ccc(C(=O)Nc2cccnc2C(=O)O)cc1Cl [Compound 17] | detectable inhibition
O=C(O)c1ncccc1NS(=O)(=O)Cc1cc(Cl)cc(Cl)c1 [Compound 43] | strong inhibition

Molecular target: Aeromonas hydrophila CphA MBL
Experiment: not given
Set-up: method as in PMID 17307979
Conditions: read-out: Ki [inhibition constant] CphA; cited from earlier work

Structure (SMILES) | Ki [µM]
O=C(O)c1ccccn1 [Compound 1, pyridine-2-carboxylic acid, reference compound] | 6

System: NDM- and VIM-producing clinical strains
Experiment: not given
Set-up: method as in PMID 29530861
Conditions: listed as ANT431; cited from earlier work

Structure (SMILES) | effective inhibitor concentration for potentiation of meropenem
O=C(O)c1ncsc1NS(=O)(=O)c1cccnc1 [Compound 76, 5-(Pyridine-3-sulfonamido)-1,3-thiazole-4-carboxylic acid] | 28 μM and 8 μg/mL

Same assay, conditions: panel of 94 randomly selected NDM- and VIM-producing clinical strains; cited from earlier work

Structure (SMILES) | potentiation of meropenem activity, in words
O=C(O)c1ncsc1NS(=O)(=O)c1cccnc1 [Compound 76, 5-(Pyridine-3-sulfonamido)-1,3-thiazole-4-carboxylic acid] | potentiate meropenem activity

System: E. coli (IR3)
Experiment: not given
Set-up: method as in PMID 29530861
Conditions: E. coli (IR3) murine thigh infection model, in combination with meropenem; cited from earlier work

Structure (SMILES) | efficacy with meropenem in thigh infection model, in words
O=C(O)c1ncsc1NS(=O)(=O)c1cccnc1 [Compound 76, 5-(Pyridine-3-sulfonamido)-1,3-thiazole-4-carboxylic acid] | restore the efficacy of meropenem

Molecular target: T1, VIM-2
Experiment: biochemical
Conditions: not given

Structure (SMILES) | IC50 [µM]
O=C(O)c1ncccc1NS(=O)(=O)c1ccccc1 [Compound 32] | 1.9
O=C(O)c1ccccn1 [Compound 1, pyridine-2-carboxylic acid, reference compound] | > 200
O=C(Nc1cccnc1C(=O)O)c1cocn1 [Compound 18] | > 200
Cc1ccc(C(=O)Nc2cccnc2C(=O)O)cc1Cl [Compound 17] | 93
O=C(O)c1ncccc1NS(=O)(=O)Cc1cc(Cl)cc(Cl)c1 [Compound 43] | 0.3
